Assay results as given in PubChem BioAssay AID328 (DTP/NCI, 2004).
Values joined by “and” are separate entries in the source; they are usually repeats but may differ in a detail not shown here. Equal values may be shown once. Toxic doses and inconclusive results are not listed.

Test system: BDF1 mice, P388 leukemia ip, median survival T/C
Assay: NCI In Vivo Anticancer Drug Screen. Data for tumor model P388 Leukemia (intraperitoneal) in B6D2F1 (BDF1) mice
Conditions: endpoint: median survival time, higher = longer survival
Procedure, shortened: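 In tumour-bearing mice, survival after compound treatment is set against the vehicle group and given as a quotient.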

## CC[C@]1(O)C[C@H]2CN(CCc3c([nH]c4ccccc34)[C@@](C(=O)OC)(c3cc4c(cc3OC)N(C=O)[C@H]3[C@@](O)(C(=O)OC)[C@H](OC(C)=O)[C@]5(CC)C=CCN6CC[C@]43[C@@H]65)C2)C1
dose: 0.03 mg/kg/injection, schedule: Q01DX009 (ip), vehicle: water
  T/C: 86 % of control
dose: 0.03 mg/kg/injection, schedule: Q01DX010 (ip), vehicle: saline
  T/C: 163 % of control and 172 % of control (2×)
dose: 0.06 mg/kg/injection, schedule: Q04DX003 (ip), vehicle: water
  T/C: 90 % of control
dose: 0.08 mg/kg/injection, schedule: Q01DX009 (ip), vehicle: saline
  T/C: 172 % of control
dose: 0.12 mg/kg/injection, schedule: Q01DX009 (ip), vehicle: saline
  T/C: 300 % of control
dose: 0.13 mg/kg/injection, schedule: Q01DX010 (ip), vehicle: saline
  T/C: 168 % of control
dose: 0.2 mg/kg/injection, schedule: Q01DX009 (ip), vehicle: saline
  T/C: 231 % of control and 277 % of control
dose: 0.2 mg/kg/injection, schedule: Q04DX002 (ip), vehicle: saline
  T/C: 163 % of control
dose: 0.22 mg/kg/injection, schedule: Q01DX009 (ip), vehicle: clinical formulation
  T/C: 245 % of control
dose: 0.25 mg/kg/injection, schedule: Q01DX009 (ip), vehicle: saline
  T/C: 275 % of control
dose: 0.25 mg/kg/injection, schedule: Q01DX010 (ip), vehicle: saline
  T/C: 240 % of control and 254 % of control and 163 % of control
dose: 0.3 mg/kg/injection, schedule: Q01DX009 (ip), vehicle: saline
  T/C: 289 % of control and 500 % of control
dose: 0.3 mg/kg/injection, schedule: Q04DX003 (ip), vehicle: saline
  T/C: 186 % of control
dose: 0.45 mg/kg/injection, schedule: Q01DX009 (ip), vehicle: saline
  T/C: 278 % of control and 336 % of control
dose: 0.48 mg/kg/injection, schedule: Q04DX003 (ip), vehicle: saline
  T/C: 232 % of control and 150 % of control
dose: 0.5 mg/kg/injection, schedule: Q01DX009 (ip), vehicle: saline
  T/C: 90 % of control
dose: 0.5 mg/kg/injection, schedule: Q01DX010 (ip), vehicle: saline
  T/C: 86 % of control and 90 % of control
dose: 0.5 mg/kg/injection, schedule: Q04DX003 (ip), vehicle: water
  T/C: 177 % of control
dose: 0.53 mg/kg/injection, schedule: Q04DX003 (ip), vehicle: saline
  T/C: 183 % of control
dose: 0.8 mg/kg/injection, schedule: Q04DX003 (ip), vehicle: clinical formulation
  T/C: 236 % of control
dose: 1.0 mg/kg/injection, schedule: Q01DX001 (ip), vehicle: water
  T/C: 153 % of control
dose: 1.0 mg/kg/injection, schedule: Q04DX003 (ip), vehicle: water
  T/C: 227 % of control
dose: 1.0 mg/kg/injection, schedule: Q04DX004 (ip), vehicle: saline
  T/C: 233 % of control
dose: 1.1 mg/kg/injection, schedule: Q04DX003 (ip), vehicle: saline
  T/C: 532 % of control and 180 % of control
dose: 1.2 mg/kg/injection, schedule: Q04DX003 (ip), vehicle: clinical formulation
  T/C: 240 % of control
dose: 1.3 mg/kg/injection, schedule: Q04DX003 (ip), vehicle: saline
  T/C: 250 % of control
dose: 1.5 mg/kg/injection, schedule: Q04DX004 (ip), vehicle: saline
  T/C: 252 % of control
dose: 1.56 mg/kg/injection, schedule: Q04DX002 (ip), vehicle: saline
  T/C: 90 % of control
dose: 1.65 mg/kg/injection, schedule: Q04DX003 (ip), vehicle: saline
  T/C: 532 % of control
dose: 1.8 mg/kg/injection, schedule: Q04DX003 (ip), vehicle: clinical formulation
  T/C: 113 % of control
dose: 2.0 mg/kg/injection, schedule: Q01DX001 (ip), vehicle: water
  T/C: 168 % of control
dose: 2.0 mg/kg/injection, schedule: Q04DX003 (ip), vehicle: saline
  T/C: 116 % of control
dose: 2.47 mg/kg/injection, schedule: Q04DX003 (ip), vehicle: saline
  T/C: 166 % of control
dose: 4.0 mg/kg/injection, schedule: Q01DX001 (ip), vehicle: saline
  T/C: 235 % of control and 163 % of control
dose: 4.0 mg/kg/injection, schedule: Q04DX003 (ip), vehicle: water
  T/C: 111 % of control
dose: 15.6 micrograms/kg/injection, schedule: Q03HX008 (ip), vehicle: clinical formulation
  T/C: 157 % of control
dose: 15.6 micrograms/kg/injection, schedule: Q03HX016 (ip), vehicle: clinical formulation
  T/C: 185 % of control
dose: 31.2 micrograms/kg/injection, schedule: Q03HX008 (ip), vehicle: clinical formulation
  T/C: 185 % of control
dose: 31.2 micrograms/kg/injection, schedule: Q03HX024 (ip), vehicle: clinical formulation
  T/C: 233 % of control
dose: 62.0 micrograms/kg/injection, schedule: Q03HX024 (ip), vehicle: saline
  T/C: 255 % of control
dose: 62.5 micrograms/kg/injection, schedule: Q03HX016 (ip), vehicle: clinical formulation
  T/C: 257 % of control
dose: 62.5 micrograms/kg/injection, schedule: Q04DX003 (ip), vehicle: clinical formulation
  T/C: 166 % of control
dose: 125.0 micrograms/kg/injection, schedule: Q03HX016 (ip), vehicle: clinical formulation
  T/C: 314 % of control
dose: 125.0 micrograms/kg/injection, schedule: Q03HX024 (ip), vehicle: saline
  T/C: 370 % of control
dose: 125.0 micrograms/kg/injection, schedule: Q04DX003 (ip), vehicle: clinical formulation
  T/C: 180 % of control
dose: 125.0 micrograms/kg/injection, schedule: Q08DX002 (ip), vehicle: clinical formulation
  T/C: 171 % of control
dose: 250.0 micrograms/kg/injection, schedule: Q01DX001 (ip), vehicle: clinical formulation
  T/C: 161 % of control
dose: 250.0 micrograms/kg/injection, schedule: Q01DX009 (ip), vehicle: clinical formulation
  T/C: 242 % of control
dose: 250.0 micrograms/kg/injection, schedule: Q03HX008 (ip), vehicle: clinical formulation
  T/C: 247 % of control
dose: 250.0 micrograms/kg/injection, schedule: Q03HX024 (ip), vehicle: saline
  T/C: 90 % of control
dose: 250.0 micrograms/kg/injection, schedule: Q08DX002 (ip), vehicle: clinical formulation
  T/C: 176 % of control
dose: 360.0 micrograms/kg/injection, schedule: Q04DX003 (ip), vehicle: saline
  T/C: 182 % of control
dose: 432.0 micrograms/kg/injection, schedule: Q04DX003 (ip), vehicle: saline
  T/C: 249 % of control
dose: 500.0 micrograms/kg/injection, schedule: Q01DX001 (ip), vehicle: clinical formulation
  T/C: 152 % of control
dose: 500.0 micrograms/kg/injection, schedule: Q03HX016 (ip), vehicle: clinical formulation
  T/C: 123 % of control
dose: 500.0 micrograms/kg/injection, schedule: Q04DX003 (ip), vehicle: clinical formulation
  T/C: 228 % of control
dose: 500.0 micrograms/kg/injection, schedule: Q04DX003 (ip), vehicle: saline
  T/C: 248 % of control
dose: 500.0 micrograms/kg/injection, schedule: Q08DX002 (ip), vehicle: clinical formulation
  T/C: 180 % of control
dose: 540.0 micrograms/kg/injection, schedule: Q04DX003 (ip), vehicle: saline
  T/C: 240 % of control and 272 % of control
dose: 600.0 micrograms/kg/injection, schedule: Q01DX009 (ip), vehicle: saline
  T/C: 120 % of control
dose: 600.0 micrograms/kg/injection, schedule: Q04DX003 (ip), vehicle: saline
  T/C: 250 % of control and 182 % of control
dose: 648.0 micrograms/kg/injection, schedule: Q04DX003 (ip), vehicle: saline
  T/C: 254 % of control
dose: 720.0 micrograms/kg/injection, schedule: Q04DX003 (ip), vehicle: saline
  T/C: 225 % of control and 291 % of control
dose: 900.0 micrograms/kg/injection, schedule: Q04DX003 (ip), vehicle: saline
  T/C: 280 % of control and 322 % of control
dose: 1000.0 micrograms/kg/injection, schedule: Q04DX003 (ip), vehicle: clinical formulation
  T/C: 571 % of control
dose: 1000.0 micrograms/kg/injection, schedule: Q08DX002 (ip), vehicle: clinical formulation
  T/C: 228 % of control
dose: 1080.0 micrograms/kg/injection, schedule: Q04DX003 (ip), vehicle: saline
  T/C: 292 % of control
dose: 1200.0 micrograms/kg/injection, schedule: Q04DX003 (ip), vehicle: saline
  T/C: 225 % of control and 116 % of control
dose: 1500.0 micrograms/kg/injection, schedule: Q04DX003 (ip), vehicle: saline
  T/C: 278 % of control and 320 % of control
dose: 1800.0 micrograms/kg/injection, schedule: Q04DX003 (ip), vehicle: saline
  T/C: 294 % of control
dose: 2000.0 micrograms/kg/injection, schedule: Q04DX003 (ip), vehicle: clinical formulation
  T/C: 95 % of control
dose: 2000.0 micrograms/kg/injection, schedule: Q08DX002 (ip), vehicle: clinical formulation
  T/C: 300 % of control
dose: 4000.0 micrograms/kg/injection, schedule: Q01DX001 (ip), vehicle: clinical formulation
  T/C: 233 % of control
dose: 4000.0 micrograms/kg/injection, schedule: Q08DX002 (ip), vehicle: clinical formulation
  T/C: 238 % of control
